Patent publication US20110053993A1, “PRODRUGS OF DESAZADESFERROTHIOCIN POLYETHER ANALOGUES AS METAL CHELATION AGENTS” (FERROKIN BIOSCIENCES, INC., priority 2009, published 2011)

Assay: In vitro pharmacokinetic (metabolic) stability in human whole blood
Assay type: in vitro ADME
Details: 5 μM test compound, 37° C., time points 0, 0.5, 1, 4, 6 and 24 hours, LC/MS/MS, percent compound remaining
Method: In Vitro Pharmacokinetic Stability Evaluation
Compounds were tested for metabolic stability in human whole blood. Such testing is commonly undertaken prior to or along with advanced preclinical testing in order to identify compounds with desirable pharmacokinetic properties. Into each of 6 centrifuge tubes was added 2 μL of test compound and 198 μL of human whole blood, taken from normal, healthy volunteers, to achieve a final concentration of 5 μM. Tubes were then incubated at 37° C. at approximately 100 rpm on an orbital shaker. One of the tubes was taken at designated time points including 0, 0.5, 1, 4, 6 and 24 hours. The reaction was stopped by the addition of 4 volumes of cold methanol. Samples were centrifuged at 20,000 rpm for 20 minutes to precipitate protein. A 200 μL aliquot of the supernatant was used for LC/MS/MS analysis for each compound at each time point. All experiments were performed in duplicate. The LC system comprised a Shimadzu liquid chromatograph separation system equipped with degasser DGU-20A3, solvent delivery unit LC-20AD, system controller CBM-20A, column oven CTO-10ASVP and CTC Analytics HTC PAL System. Mass spectrometric analysis was performed using an API 4000 instrument from AB Inc. (Canada) with an ESI interface. The data acquisition and control system were created using Analyst 1.5 software from ABI Inc. All calculations were carried out using Microsoft Excel (2003). Percent compound remaining at each time point was estimated by determining the peak areas from extracted ion chromatograms.

Row | SMILES | Half Life [h]
1 | COCCOCCOCCOc1cccc(C2=N[C@@](C)(C(=O)O)CS2)c1OC(=O)N(C)c1ccccc1 [Example 5, (S)-2-(3-(2-(2-(2-methoxyethoxy)ethoxy)ethoxy)-2-(methyl(phenyl)carbamoyloxy)phenyl)-4-methyl-4,5-dihydrothiazole-4-carboxylic acid] | 0.5 to 1
2 | COCCOCCOCCOc1cccc(C2=N[C@@](C)(C(=O)O)CS2)c1OC(=O)N1CCCC1 [Example 3, (S)-2-(3-(2-(2-(2-methoxyethoxy)ethoxy)ethoxy)-2-(pyrrolidine-1-carbonyloxy)phenyl)-4-methyl-4,5-dihydrothiazole-4-carboxylic acid] | 1 to 4
3 | COCCOCCOCCOc1cccc(C2=N[C@@](C)(C(=O)OC(C)C)CS2)c1OC(=O)N(C)c1ccccc1 [Example 4, (S)-isopropyl 2-(3-(2-(2-(2-methoxyethoxy)ethoxy)ethoxy)-2-(methyl(phenyl)carbamoyloxy)phenyl)-4-methyl-4,5-dihydrothiazole-4-carboxylate] | >24

Other lines, results leading:

Row | Half Life [h] | SMILES
4 | 1 to 4 | COCCOCCOCCOc1cccc(C2=N[C@@](C)(C(=O)OC(C)C)CS2)c1O [Example 1, (S)-isopropyl 2-(2-hydroxy-3-(2-(2-(2-methoxyethoxy)ethoxy)ethoxy)phenyl)-4-methyl-4,5-dihydrothiazole-4-carboxylate]
5 | >24 | COCCOCCOCCOc1cccc(C2=N[C@@](C)(C(=O)OC(C)C)CS2)c1OC(=O)N1CCCC1 [Example 2, (S)-isopropyl 2-(3-(2-(2-(2-methoxyethoxy)ethoxy)ethoxy)-2-(pyrrolidine-1-carbonyloxy)phenyl)-4-methyl-4,5-dihydrothiazole-4-carboxylate]
6 | 6 to 24 | COCCOCCOCCOc1cccc(C2=N[C@@](C)(C(=O)O)CS2)c1OC(=O)C(C)C [Example 6, (S)-2-(2-(isobutyryloxy)-3-(2-(2-(2-methoxyethoxy)ethoxy)ethoxy)phenyl)-4-methyl-4,5-dihydrothiazole-4-carboxylic acid]
